In patent publication US6995243B2, “Antibodies that recognize and bind phosphorylated human glucocorticoid receptor and methods of using same” (New York University, priority 2002, dated 2006):
“Also recorded” adds a separate entry of the source.

Columns and labels:
[1] = target: T1, human GR phosphorylated at S211 (Homo sapiens, UniProt P04150); assay: Immunoblot of GR S211 phosphorylation in U2OS-hGR cell extracts; type: cell-based; conditions: 1 h; for GR phosphorylation at S211: ligand 100 nM, U2OS-hGR cells
T1 construct: expressed in transfected cells
T1 sequence (P04150 1-777): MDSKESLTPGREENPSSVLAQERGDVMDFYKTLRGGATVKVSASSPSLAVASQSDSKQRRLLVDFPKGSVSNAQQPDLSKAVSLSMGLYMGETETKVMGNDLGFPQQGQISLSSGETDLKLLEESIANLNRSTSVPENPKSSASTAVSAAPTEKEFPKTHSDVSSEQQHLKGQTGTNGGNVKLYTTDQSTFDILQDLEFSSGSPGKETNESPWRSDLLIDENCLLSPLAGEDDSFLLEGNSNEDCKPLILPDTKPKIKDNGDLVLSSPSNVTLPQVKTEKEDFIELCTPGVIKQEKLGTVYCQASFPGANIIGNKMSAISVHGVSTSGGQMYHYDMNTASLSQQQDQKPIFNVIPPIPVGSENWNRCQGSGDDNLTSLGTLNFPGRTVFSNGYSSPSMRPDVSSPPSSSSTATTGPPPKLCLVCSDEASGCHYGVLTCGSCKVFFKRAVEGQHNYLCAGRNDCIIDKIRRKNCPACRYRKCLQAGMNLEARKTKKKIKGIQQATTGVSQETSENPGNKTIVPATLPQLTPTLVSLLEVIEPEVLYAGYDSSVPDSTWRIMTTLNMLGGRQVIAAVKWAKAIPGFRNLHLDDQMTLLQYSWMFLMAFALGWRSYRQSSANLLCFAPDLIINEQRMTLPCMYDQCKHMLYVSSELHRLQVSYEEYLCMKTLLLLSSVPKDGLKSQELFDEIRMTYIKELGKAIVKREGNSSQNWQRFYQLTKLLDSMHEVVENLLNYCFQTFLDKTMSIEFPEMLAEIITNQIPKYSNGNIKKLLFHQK
Method: In FIG. 6A, U20S-hGR were treated with ethanol (−) or the ligands indicated (100 nM) for 1 hour and whole cell extracts were prepared. For antagonism experiments, a 10-fold excess of RU486 (1 μM) or ZK299 (1 μM) were added simultaneously with 100 nM Dex for 1 h prior to cell lysis. Equal amounts of protein from each treatment were analyzed by immunoblotting with either phospho-S203, phospho-S211 or HA antibodies, reflective of the amount of total GR present in each lane.
Cells were placed on ice, washed twice in phosphate-buffer saline (PBS), lysed in 0.5 ml of buffer containing 50 mM HEPES, pH 7.5, 150 mM NaCl, 1 mM EDTA, 1 mM EGTA, 1 mM NaF, 1% Triton X-100, 10% glycerol and additional protease and phosphatase inhibitors: 1 mM PMSF, 20 mM β-glycerophosphate, 8 mM sodium pyrophosphate, 1 μg/ml leupeptin, pepstatin A and aprotinin (Roche). […] The soluble supernatants were normalized for total protein concentration using the Bio-Rad protein assay (Bio-Rad Laboratories, Hercules, Calif.) and the samples were boiled for 3 min in 2×SDS sample buffer and stored at −20° C.
Cell extracts or immunoprecipitates containing GR were separated by 10% SDS-polyacrylamide gel electrophoresis (PAGE) and were transferred to Immobilon paper (Millipore Corp., Bedford, Mass.) at 110V for 80 min in Tris-Glycine transfer buffer. The membranes were blocked overnight in 5% bovine serum albumin (BSA) in Tris-buffered saline, pH 7.4 (TBS) (blocking solution) at 4° C., then were incubated in the blocking buffer with primary antibody at room temperature (RT) for 2–4 h using 1:1,000 and 1:10,000 dilution of serum for phospho-S211 (Ab353) and phospho-S203 (Ab211), respectively. […] The membranes were washed three times for 10 min in TBS/0.1% Triton X-100 and twice in TBS and incubated for 1 h at RT with 0.2 μg/ml protein A conjugated to horseradish peroxidase (HRP) (Kirkegaard and Perry Laboratories, Gaithersburg, Md.). For blots using the anti-HA-tag monoclonal antibody (α-HA; Roche), an HRP-conjugated goat-anti-mouse IgG secondary antibody was used. Blots were then washed three times for 10 min in TBS-0.1% Triton X-100, twice in TBS and developed using enhanced chemiluminescence (ECL) according to manufacturer's instructions (Amersham Pharmacia Biotech Inc., Piscataway, N.J.).

[2] = tested on: GR-mediated transcriptional activation; assay: MMTV-luciferase reporter GR transcriptional activation in U2OS-hGR cells; type: cell-based, human; conditions: ligand 100 nM, 1 h
Method: In FIG. 6B, U2OS-hGR cells were transiently transfected with the MMTV-luciferase reporter construct along with pCMV-lacZ as an internal control. After 16 h, the cells were treated with ligands indicated (100 nM) for 1 h, conditions identical to those used for the immunoblot analysis, and luciferase activity determined.

total GR = total GR (Homo sapiens, UniProt P04150); conditions: 12 h continuous hormone treatment, 100 nM
Method: FIGS. 7A–7C are immunoblots and graph showing the kinetics of S203 and S211 phosphorylation in response to Dex treatment. U2OS-hGR cells were treated with ethanol (−) or Dex (100 nM) for the time indicated. Whole cell lysates were prepared, normalized and analyzed by immunoblotting with phospho-S203, phospho-S211 or HA antibodies. Immunoblot images of GR phosphorylated at S203 and S211 in the first hour of Dex treatment (FIG. 7A) or throughout 12 h of continuous Dex treatment (FIG. 7B); the total GR in each sample was determined by immunoblotting for HA. In FIG. 7C, quantitative analysis of immunoblot results in panel B normalized to total GR detected by HA. The data shown are from a single experiment that is representative of at least three independent experiments. […]
Cell extracts or immunoprecipitates containing GR were separated by 10% SDS-polyacrylamide gel electrophoresis (PAGE) and were transferred to Immobilon paper (Millipore Corp., Bedford, Mass.) at 110V for 80 min in Tris-Glycine transfer buffer. […] Endogenous GR was detected using the N499 polyclonal antibody, raised against residues 1–499 of the human GR. […] Quantitative analysis of immunoblots was performed using the NIH image software package (version 1.62).

[3] = target: T2, human GR phosphorylated at S203 (Homo sapiens, UniProt P04150); conditions: ligand 100 nM, 1 h, U2OS-hGR cells
T2 sequence (P04150 1-777): T1 sequence (P04150 1-777)
Method: In FIG. 6A, U20S-hGR were treated with ethanol (−) or the ligands indicated (100 nM) for 1 hour and whole cell extracts were prepared. For antagonism experiments, a 10-fold excess of RU486 (1 μM) or ZK299 (1 μM) were added simultaneously with 100 nM Dex for 1 h prior to cell lysis. Equal amounts of protein from each treatment were analyzed by immunoblotting with either phospho-S203, phospho-S211 or HA antibodies, reflective of the amount of total GR present in each lane. In FIG. 6B, U2OS-hGR cells were transiently transfected with the MMTV-luciferase reporter construct along with pCMV-lacZ as an internal control. After 16 h, the cells were treated with ligands indicated (100 nM) for 1 h, conditions identical to those used for the immunoblot analysis, and luciferase activity determined.
Cells were placed on ice, washed twice in phosphate-buffer saline (PBS), lysed in 0.5 ml of buffer containing 50 mM HEPES, pH 7.5, 150 mM NaCl, 1 mM EDTA, 1 mM EGTA, 1 mM NaF, 1% Triton X-100, 10% glycerol and additional protease and phosphatase inhibitors: 1 mM PMSF, 20 mM β-glycerophosphate, 8 mM sodium pyrophosphate, 1 μg/ml leupeptin, pepstatin A and aprotinin (Roche). Lysates were centrifuged at 12,000 rpm for 15 min at 4° C. […]

GR = target: T3, GR (Homo sapiens, UniProt P04150); conditions: cited from earlier work
T3 sequence (P04150 1-777): T1 sequence (P04150 1-777)

Question: Which results are given for `C[C@]12C=CC(=O)C=C1CC[C@@H]1[C@@H]2[C@@H](O)C[C@@]2(C)[C@H]1CC[C@]2(O)C(=O)CO` [Prednisolone]?
Answer: GR phosphorylation at S211 [1]: promoted S211 phosphorylation; also recorded: induced robust GR phosphorylation at S211; GR transcriptional activation (MMTV-luciferase) [2]: pattern mirrored in the GR transcriptional activation assay

Question: With `C[C@@H]1C[C@H]2[C@@H]3CCC4=CC(=O)C=C[C@]4(C)[C@@]3(F)[C@@H](O)C[C@]2(C)[C@@]1(O)C(=O)CO` [Dex, dexamethasone] as the compound, how does the “Reduction of total GR” value (total GR) read?
Answer: The value was about 80%.

Question: For `CN(C)c1ccc([C@H]2C[C@]3(C)[C@@H](CC[C@]3(O)CCCO)[C@@H]3CCC4=CC(=O)CCC4=C32)cc1` [ZK299], which “Blocking of Dex-dependent GR phosphorylation” value ([1]; 10-fold molar excess (1 μM) added with 100 nM Dex) is on record?
Answer: Its value is “not as effective”.

Question: And the “GR phosphorylation at S211” value [1]?
Answer: The value was “almost no effect”.

Question: What about the “GR phosphorylation at S203” value [3] of the same compound?
Answer: The value was “almost no effect”.

Question: Which “Effect on GR reported in the literature” value (GR) does the source give for `C=C1[C@@H](O)[C@@H]2O[C@]3(CC[C@H](/C=C/[C@@H](C)[C@@H]4CC(C)=C[C@@]5(O[C@H](C[C@@](C)(O)C(=O)O)CC[C@H]5O)O4)O3)CC[C@H]2O[C@@H]1[C@@H](O)C[C@H](C)[C@H]1O[C@@]2(CCCCO2)CC[C@H]1C` [okadaic acid] here?
Answer: The value was “results in GR hyperphosphorylation”.
